Assays:
[1] = biological target: T1, HCV genotype 1b (BK) NS3 modified enzyme with a R155K mutation (Hepatitis C virus genotype 1b, UniProt P26663, R1181K); test: HCV NS3 protease time-resolved fluorescence (TRF) assay, genotype 1b R155K; type: biochemical; conditions: Ki 1b R155K, genotype 1b (BK) NS3 R155K; single value
T1 construct: HCV genotype 1b (BK) NS3 modified enzyme
Outline: (§1)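 Assay buffer: 50 mM HEPES pH 7.5, 150 mM NaCl, 0.1% PEG 8000, 0.15% Triton X-100. Ten-minute enzyme–inhibitor preincubation; substrate at 25 nM final; 6 h reaction, room temperature; signal/background set at 5-20 by enzyme amount.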

[2] = biological target: HCV NS3 protease genotype 3a (3A-1) (Hepatitis C virus genotype 3a, UniProt Q81258); test: HCV NS3 protease time-resolved fluorescence (TRF) assay, genotype 3a; type: biochemical; conditions: Ki 3a
Outline: as §1

| Compound | Ki [1] | Ki [2] |
| --- | --- | --- |
| C=C[C@@H]1C[C@]1(NC(=O)[C@@H]1C[C@@H]2CN1C(=O)[C@H](C(C)(C)C)NC(=O)O[C@@H]1CCC[C@H]1CCCCCc1c(nc3ccccc3c1O)O2)C(=O)NS(=O)(=O)C1(C(=C)C)CC1 [Example 37, (3aR,7S,10S,12R,24aR)-7-tert-butyl-N-[(1R, 2S)-2-ethenyl-1-({[1-(prop-1-en-2-yl)cyclopropyl]sulfonyl}carbamoyl)cyclopropyl]-19-hydroxy-5,8-dioxo-1,2,3,3a,5,6,7,8,11,12,20, 21,22,23,24,24a-hexadecahydro-10H-9,12-methanocyclopenta[18,19][1,10,3,6] dioxadiazacyclononadecino[11,12-b]quinoline-10-carboxamide] | 0.16 nM | 6 nM |
| C=C[C@@H]1C[C@]1(NC(=O)[C@@H]1C[C@@H]2CN1C(=O)[C@H](C1CCCC1)NC(=O)O[C@@H]1CCC[C@H]1CC/C=C/Cc1c(nc3ccccc3c1OP(=O)(OCC)OCC)O2)C(=O)NS(=O)(=O)C1CC1 [Example 38, (3aR,7S,10S,12R,21E,24aS)-7-cyclopentyl-10-({(1R,2S)-1-[(cyclopropylsulfonyl)carbamoyl]-2-ethenylcyclopropyl}carbamoyl)-5,8-dioxo-1,2,3,3a,5,6,7,8,11,12,20,23,24,24a-tetradecahydro-10H-9,12-methanocyclopenta[18,19][1,10,3,6]dioxadiazacyclononadecino[11,12-b]quinolin-19-yl diethyl phosphate] | 1.2 nM | 94 nM |
| C=C[C@@H]1C[C@]1(NC(=O)[C@@H]1C[C@@H]2CN1C(=O)[C@H](C1CCCC1)NC(=O)O[C@@H]1CCC[C@H]1CC/C=C/Cc1c(nc3ccccc3c1OC(C)=O)O2)C(=O)NS(=O)(=O)C1CC1 [Example 39, (3aR,7S,10S,12R,21E,24aS)-7-cyclopentyl-10-({(1R,2S)-1-[(cyclopropylsulfonyl)carbamoyl]-2-ethenylcyclopropyl}carbamoyl)-5,8-dioxo-1,2,3,3a,5,6,7,8,11,12,20,23,24,24a-tetradecahydro-10H-9,12-methanocyclopenta[18,19][1,10,3,6]dioxadiazacyclononadecino[11,12-b]quinolin-19-yl acetate] | 0.13 nM | 3.5 nM |
| C=C[C@@H]1C[C@]1(NC(=O)[C@@H]1C[C@@H]2CN1C(=O)[C@H](C1CCCC1)NC(=O)O[C@@H]1CCC[C@H]1CC/C=C/Cc1c(nc3ccccc3c1OC(=O)C(C)C)O2)C(=O)NS(=O)(=O)C1CC1 [Example 40, (3aR,7S,10S,12R,21E,24aS)-7-cyclopentyl-10-({(1R,2S)-1-[(cyclopropylsulfonyl)carbamoyl]-2-ethenylcyclopropyl}carbamoyl)-5,8-dioxo-1,2,3,3a,5,6,7,8,11,12,20,23,24,24a-tetradecahydro-10H-9,12-methanocyclopenta[18,19][1,10,3,6]dioxadiazacyclononadecino[11,12-b]quinolin-19-yl 2-methylpropanoate] | 1.3 nM | 27 nM |
| C=C[C@@H]1C[C@]1(NC(=O)[C@@H]1C[C@@H]2CN1C(=O)[C@H](C1CCCC1)NC(=O)O[C@@H]1CCC[C@H]1CC/C=C/Cc1c(nc3ccccc3c1OC(=O)CC(C)C)O2)C(=O)NS(=O)(=O)C1CC1 [Example 41, (3aR,7S,10S,12R,21E,24aS)-7-cyclopentyl-10-({(1R,2S)-1-[(cyclopropylsulfonyl)carbamoyl]-2-ethenylcyclopropyl}carbamoyl)-5,8-dioxo-1,2,3,3a,5,6,7,8,11,12,20,23,24,24a-tetradecahydro-10H-9,12-methanocyclopenta[18,19][1,10,3,6]dioxadiazacyclononadecino[11,12-b]quinolin-19-yl 3-methylbutanoate] | 6.6 nM | 73 nM |
| C=C[C@@H]1C[C@]1(NC(=O)[C@@H]1C[C@@H]2CN1C(=O)[C@H](C1CCCC1)NC(=O)O[C@@H]1CCC[C@H]1CC/C=C/Cc1c(nc3ccccc3c1OCCN1CCOC1=O)O2)C(=O)NS(=O)(=O)C1CC1 [Example 42, (3aR,7S,10S,12R,21E,24aS)-7-cyclopentyl-N-{(1R,2S)-1-[(cyclopropylsulfonyl)carbamoyl]-2-ethenylcyclopropyl}-5,8-dioxo-19-[2-(2-oxo-1,3-oxazolidin-3-yl)ethoxy]-1,2,3,3a,5,6,7,8,11,12,20,23,24,24a-tetradecahydro-10H-9,12-methanocyclopenta[18,19][1,10,3,6]dioxadiazacyclononadecino[11,12-b]quinoline-10-carboxamide] | 0.073 nM | 1.5 nM |
| C=C[C@@H]1C[C@]1(NC(=O)[C@@H]1C[C@@H]2CN1C(=O)[C@H](C1CCCC1)NC(=O)O[C@@H]1CCC[C@H]1CC/C=C/Cc1c(nc3ccccc3c1OCCc1ccccn1)O2)C(=O)NS(=O)(=O)C1CC1 [Example 43, (3aR,7S,10S,12R,21E,24aS)-7-cyclopentyl-N-{(1R,2S)-1-[(cyclopropylsulfonyl)carbamoyl]-2-ethenylcyclopropyl}-5,8-dioxo-19-[2-(pyridin-2-yl)ethoxy]-1,2,3,3a, 5,6,7,8,11,12,20,23,24,24a-tetradecahydro-10H-9,12-methanocyclopenta [18,19][1,10,3,6]dioxadiazacyclonona decino[11,12-b]quinoline-10-carboxamide] | 0.28 nM | 9.9 nM |
| C=C[C@@H]1C[C@]1(NC(=O)[C@@H]1C[C@@H]2CN1C(=O)[C@H](C1CCCC1)NC(=O)O[C@@H]1CCC[C@H]1CC/C=C/Cc1c(nc3ccccc3c1OCCn1cccn1)O2)C(=O)NS(=O)(=O)C1CC1 [Example 44, (3aR,7S,10S,12R,21E,24aS)-7-cyclopentyl-N-{(1R,2S)-1-[(cyclopropylsulfonyl)carbamoyl]-2-ethenylcyclopropyl}-5,8-dioxo-19-[2-(1H-pyrazol-1-yl)ethoxy]-1,2,3,3a,5,6,7,8,11,12,20,23,24,24a-tetra decahydro-10H-9,12-methanocyclopenta[18,19][1,10,3,6]dioxadiazacyclonona decino[11,12-b] quinoline-10-carboxamide] | 0.25 nM | 7.9 nM |
| C=C[C@@H]1C[C@]1(NC(=O)[C@@H]1C[C@@H]2CN1C(=O)[C@H](C(C)(C)C)NC(=O)O[C@@H]1CCC[C@H]1CC/C=C/Cc1c(nc3ccccc3c1OCCCN1CCCCC1)O2)C(=O)NS(=O)(=O)C1CC1 [Example 45, (3aR,7S,10S,12R,21E,24aS)-7-tert-butyl-N-{(1R,2S)-1-[(cyclopropylsulfonyl)carbamoyl]-2-ethenylcyclopropyl}-5,8-dioxo-19-[3-(piperidin-1-yl)propoxy]-1,2,3,3a,5,6,7,8,11, 12,20,23,24,24a-tetradecahydro-10H-9,12-methanocyclopenta[18,19][1,10,3,6]dioxa diazacyclononadecino[11,12-b]quinoline-10-carboxamide] | 0.1 nM | 0.5 nM |
| C=C[C@@H]1C[C@]1(NC(=O)[C@@H]1C[C@@H]2CN1C(=O)[C@H](C1CCCC1)NC(=O)O[C@@H]1CCC[C@H]1CC/C=C/Cc1c(nc3ccccc3c1OCCOC)O2)C(=O)NS(=O)(=O)C1CC1 [Example 46, (3aR,7S,10S,12R,21E,24aS)-7-cyclopentyl-N-{(1R,2S)-1-[(cyclopropylsulfonyl)carbamoyl]-2-ethenylcyclopropyl}-19-(2-methoxyethoxy)-5,8-dioxo-1,2,3,3a,5,6,7,8,11,12,20,23,24,24a-tetradecahydro-10H-9,12-methanocyclopenta[18,19][1,10,3,6] dioxadiazacyclononadecino[11,12-b] quinoline-10-carboxamide] | 0.15 nM | 4 nM |
| C=C[C@@H]1C[C@]1(NC(=O)[C@@H]1C[C@@H]2CN1C(=O)[C@H](C1CCCC1)NC(=O)O[C@@H]1CCC[C@H]1CC/C=C/Cc1c(nc3ccccc3c1OCCCOCCOC)O2)C(=O)NS(=O)(=O)C1CC1 [Example 47, (3aR,7S,10S,12R,21E,24aS)-7-cyclopentyl-N-{(1R,2S)-1-[(cyclopropylsulfonyl)carbamoyl]-2-ethenylcyclopropyl}-19-[3-(2-methoxyethoxy)propoxy]-5,8-dioxo-1,2,3,3a,5,6,7,8,11,12,20,23,24,24a-tetradeca-hydro-10H-9,12-methanocyclopenta[18,19] [1,10,3,6]dioxadiazacyclononadecino[11, 12-b]quinoline-10-carboxamide] | 0.12 nM | 2.9 nM |
| C=C[C@@H]1C[C@]1(NC(=O)[C@@H]1C[C@@H]2CN1C(=O)[C@H](C1CCCC1)NC(=O)O[C@@H]1CCC[C@H]1CC/C=C/Cc1c(nc3ccccc3c1OCCCN1CCNC1=O)O2)C(=O)NS(=O)(=O)C1(C)CC1 [Example 48, (3aR,7S,10S,12R,21E,24aS)-7-cyclopentyl-N-[(1R,2S)-2-ethenyl-1-{[(1-methyl-cyclopropyl)sulfonyl]carbamoyl}cyclopropyl]-5,8-dioxo-19-[3-(2-oxoimidazolidin-1-yl)propoxy]-1,2,3,3a,5,6,7,8,11,12,20,23,24,24a-tetradecahydro-10H-9,12-methanocyclopenta [18,19][1,10,3,6]dioxadiazacyclononadecino [11,12-b]quinoline-10-carboxamide] | 0.12 nM | 0.76 nM |
| C=C[C@@H]1C[C@]1(NC(=O)[C@@H]1C[C@@H]2CN1C(=O)[C@H](C1CCCC1)NC(=O)O[C@@H]1CCC[C@H]1CC/C=C/Cc1c(nc3ccccc3c1OCCC(C)(C)O)O2)C(=O)NS(=O)(=O)C1(C)CC1 [Example 49, (3aR,7S,10S,12R,21E,24aS)-7-cyclopentyl-N-[(1R,2S)-2-ethenyl-1-{[(1-methylcyclopropyl)sulfonyl]carbamoyl}cyclopropyl]-19-(3-hydroxy-3-methylbutoxy)-5,8-dioxo-1,2,3,3a,5,6,7,8,11,12,20,23,24,24a-tetradecahydro-10H-9,12-methanocyclo penta[18,19][1,10,3,6]dioxadiazacyclo nonadecino[11,12-b]quinoline-10-carboxamide] | 0.16 nM | 1.5 nM |

From patent US9328138B2 (priority 2011, dated 2016)
